{
  "source": "patent US11510899B2",
  "about": "“RTX toxin production inhibitor and composition for treating symptom of vibrio infection by using same” (priority 2018, dated 2022)",
  "key": {"Vibrio vulnificus [1]": {"system": "Vibrio vulnificus", "assay": "Mouse infection with Vibrio vulnificus, survival", "type": "in vivo", "details": "1.4 mg/kg mixed with bacteria, subcutaneous, ICR female mice, vs DMSO", "method": "(§1) In order to determine whether or not CM2660 also decreases the virulence of Vibrio vulnificus in vivo using 7-week-old ICR female mice, Vibrio vulnificus cultured at A600=0.5 at 30° C. was prepared. This was mixed with DMSO (10%) or CM2660 (1.4 mg/kg of mouse body weight) and the resulting mixture was subcutaneously injected into the back of mice anesthetized with isoflurane. In addition, only CM2660 was injected subcutaneously in order to determine the in-vivo toxicity of CM2660 (FIG. 22). FIG. 22 is a graph showing the results of observation of the expression of in-vivo toxicity of Vibrio vulnificus after injecting CM2660 into mice."}, "hlyA and tlh": {"system": "hlyA and tlh", "assay": "qRT-PCR of hemolytic protein genes in Vibrio cholerae", "details": "20 μM, A600=0.5, vs 2% DMSO"}, "rtxA, vvhA and plpA": {"system": "rtxA, vvhA and plpA", "assay": "qRT-PCR of virulence genes activated by HlyU in Vibrio vulnificus", "type": "cell-based", "details": "20 μM", "method": "The effect of CM2660 on the expression of rtxA, vvhA and plpA, the virulence genes of Vibrio vulnificus activated by HlyU, was investigated. […] Then, the culture solution were sampled at the time at which the expression of each gene was mainly controlled by HlyU (A600=0.5 for rtxA and vvhA, and A600=1.0 for plpA), RNA was purified, and quantitative real-time polymerase chain reaction (quantitative Real-Time (qRT)-PCR) was performed (FIGS. 10 to 12)."}, "Vibrio vulnificus [2]": {"system": "Vibrio vulnificus", "assay": "Cytotoxicity of Vibrio vulnificus to INT-407 cells (LDH activity)", "type": "cell-based", "details": "MOI 10, 2.5 hours, various concentrations", "method": "Vibrio vulnificus cultured to A600=0.5 at 30° C. was treated with various concentrations of CM2660 or DMSO (control group) and infected into INT-407 cells prepared in 96-well assay plates at multiplicity of infection (MOI) of 10 for 2.5 hours. Then, the 96-well assay plates were centrifuged to separate INT-407 cells, and the supernatant and the lactate dehydrogenase (LDH) activity in the supernatant was measured to determine the occurrence of virulence (FIG. 13)."}, "INT-407 cells": {"system": "INT-407 cells", "assay": "In-vitro cytotoxicity, LDH release assay", "type": "cell-based, human", "details": "1 to 500 μM, 3 hours, 5% Triton-X 100 = 100%", "method": "In order to investigate the in-vitro cytotoxicity of CM2660, human epithelial cells, INT-407 cells were treated with Vibrio vulnificus (control) of MOI 10, and 1 to 500 μM of CM2660 or DMSO. After 3 hours, LDH release assay was performed and cytotoxicity was measured (FIG. 21). […] Cytotoxicity (%) was calculated with respect to the cytotoxicity obtained through treatment of 5% Triton-X 100 as 100%."}, "Vibrio alginolyticus": {"system": "Vibrio alginolyticus", "assay": "Cytotoxicity of Vibrio alginolyticus", "type": "cell-based", "details": "CM2660 at different concentrations"}, "[3]": {"assay": "In-vivo toxicity of CM2660 injected alone", "details": "subcutaneous, ICR female mice", "method": "as §1"}, "HlyU": {"target": "T1, HlyU (Vibrio vulnificus, UniProt A0A3Q0L222)", "T1 sequence (A0A3Q0L222 1-98)": "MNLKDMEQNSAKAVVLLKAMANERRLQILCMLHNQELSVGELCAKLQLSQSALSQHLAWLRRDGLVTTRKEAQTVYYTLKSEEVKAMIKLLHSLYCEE", "assay": "Vibrio reporter strain, pKK1305 (PrtxA-lux, activated by HlyU) in wild-type V. vulnificus", "type": "cell-based", "details": "Compound Group I; HlyU activity (RLU, DMSO = 100%), 30° C.", "method": "Meanwhile, verification experiments using the Vibrio reporter strain were also conducted so as to exclude false positive results. It was identified that the effect of the compound was not limited only to E. coli using Vibrio vulnificus, each having the reporter plasmid (pZW1608) inhibited by HlyU, which was used for the E. coli reporter strain, and the plasmid (pKK1305) in which the promoter of the rtxA gene activated by HlyU is cloned in front of the bioluminescence operon.\nThe constructed wild-type Vibrio reporter strain was treated with sample compounds and cultured at 30° C., and cell growth and luminescence were measured in the same manner as the E. coli strain screening (FIG. 3 and FIG. 4).\nIn order to identify whether or not a specific structure of CM2660 has a significant effect on HlyU inhibition, the effect of HlyU inhibition by the compound CM2660 and derivatives thereof, “Compound Group I” (FIG. 5) was verified. For the purpose, the pKK1305 plasmid prepared in Example 1 was conjugated to the wild-type Vibrio vulnificus, and the Vibrio reporter strain (pKK1305 in wild-type V. vulnificus) thus produced was treated with various concentrations of the derivative compounds.\n(§2) While culturing at 30° C., the growth of the reporter strain and the degree of bioluminescence thereof were measured in the same manner as in Example 1, and the RLU was calculated. The RLU of the DMSO-treated control group was expressed as 100% HlyU activity. HlyU activity was plotted according to the concentration of the derivative compound, and EC50 (half maximal effective concentration) was calculated using GraphPad Prism 7.0 (GraphPad Software, San Diego, Calif.) (FIG. 6, Table 2)."}, "Vibrio vulnificus [4]": {"system": "Vibrio vulnificus", "assay": "Growth of Vibrio vulnificus", "type": "cell-based", "details": "20-500 μM CM2660", "method": "as §2\nTherefore, Vibrio vulnificus was treated with various concentrations of CM2660, and the growth of Vibrio vulnificus was observed (FIG. 20)."}, "Vibrio vulnificus [5]": {"system": "Vibrio vulnificus", "assay": "Hemolytic activity of Vibrio vulnificus against erythrocytes", "type": "cell-based", "details": "culture supernatant at A600=1.0, different concentrations", "method": "Meanwhile, the effect of CM2660 on the hemolytic activity against erythrocytes of Vibrio vulnificus was investigated. For this purpose, Vibrio vulnificus was cultured at 30° C. and treated with CM2660 at different concentrations at A600=0.2. […] The filtered supernatant was concentrated and mixed with erythrocytes diluted to 10% in PBS and cultured at 37° C. Hemolytic activity against erythrocytes was quantified by measuring absorbance at 540 nm (A540). A sample completely dissolved by treatment with 5% Triton X-100 instead of the supernatant was used as a positive control group and a sample using LBS medium was used as a negative control group.\nHemolytic activity was calculated using the following Equation 2, and is shown as a percentage (%) in FIG. 14."}},
  "data": [
    {"compound": "O=C(C#Cc1ccccc1)Nc1scc2c1c(=O)oc1ccccc12", "note": "[CM2660, N-(4-oxo-4H-thieno[3,4-c]chromen-3-yl)-3-phenylprop-2-ynamide]", "values": [
      {"measurement": "viability (survival) of mice infected with Vibrio vulnificus", "setting": "Vibrio vulnificus [1]", "result": "significantly higher"},
      {"measurement": "hlyA mRNA level", "setting": "hlyA and tlh", "result": "significantly reduced"},
      {"measurement": "tlh mRNA level", "setting": "hlyA and tlh", "result": "significantly reduced"},
      {"measurement": "rtxA mRNA level", "setting": "rtxA, vvhA and plpA; A600=0.5, vs 2% DMSO", "result": "significantly reduced"},
      {"measurement": "vvhA mRNA level", "setting": "rtxA, vvhA and plpA; A600=0.5, vs 2% DMSO", "result": "significantly reduced"},
      {"measurement": "plpA mRNA level", "setting": "rtxA, vvhA and plpA; A600=1.0, vs 2% DMSO", "result": "significantly reduced"},
      {"measurement": "virulence (cytotoxicity) occurrence of Vibrio vulnificus", "setting": "Vibrio vulnificus [2]", "result": "concentration-dependent decrease"},
      {"measurement": "cytotoxicity to INT-407 cells", "setting": "INT-407 cells", "result": "almost no cytotoxicity"},
      {"measurement": "cytotoxicity of Vibrio alginolyticus", "setting": "Vibrio alginolyticus", "result": "reduced in a concentration-dependent manner"},
      {"measurement": "in-vivo toxicity (survival after CM2660 alone)", "setting": "[3]", "result": "did not show in-vivo toxicity"},
      {"measurement": "EC50", "setting": "HlyU", "result": 30.9, "unit": "µM"},
      {"measurement": "in-vitro growth of Vibrio vulnificus", "setting": "Vibrio vulnificus [4]", "result": "no significant effect"},
      {"measurement": "hemolytic activity against erythrocytes", "setting": "Vibrio vulnificus [5]", "result": "concentration-dependent decrease"}
    ]}
  ]
}
